Counter-ions that a name gives are not always drawn. Like-named read-outs stand apart in the source and are kept apart here.
What was measured:
[1] = Methanolysis of dimethyl sulfate, 1H NMR kinetics; assay type: physicochemical; conditions: 65° C., 1.5 mole % DMS in dry methanol
Protocol: Solutions of 1.5 mole % DMS and methanol were heated in a sealed tube to 35° C. and the time-dependent NMR spectra were collected for these mixtures. […] Use of NMR data helped confirm the reaction mechanism proposed in Scheme 2.
The reaction proceeded more slowly at 35° C. but clearly confirms the formation of dimethyl ether (DME). The gradual downfield shift of the exchangeable OH resonance (4.8 ppm) supports the generation of a strong acid i.e., MMS (Scheme 5). Another set of duplicate experiments were performed under the reaction conditions at 65° C. (again spiking 1.5 mole % DMS into dry methanol with <0.01% water and no sulfuric acid) and monitoring the reaction for 60 minutes. This reaction was considered to be essentially irreversible under nominal plant process conditions since the reaction vessels are not pressurized and the resultant dimethyl ether would bubble out of solution.

[2] = Hydrolysis of dimethyl sulfate, water spiking, 1H NMR kinetics; assay type: physicochemical; conditions: 65° C., water 10.5, 14.0, 17.7 mole % in DMS-methanol
Protocol: The hydrolysis rate of dimethyl sulfate was determined by spiking known amounts of water into a mixture of DMS and methanol. Water was spiked into DMS-methanol solutions at three different levels—10.5, 14.0, and 17.7 mole % equivalents. The reactions were monitored for 60 minutes at 65° C. and the DMS peak integrals obtained.
The rate constant for the hydrolysis of DMS (k−2) was derived by fitting all the data to a DynoChem model that used the time-dependant peak integral data.

[3] = Formation of monomethyl sulfate from sulfuric acid and methanol, 1H NMR kinetics; assay type: physicochemical; conditions: 65° C., dry methanol and concentrated sulfuric acid; ±7% RSD
Protocol: All ^1H NMR spectra were obtained in and referenced against DMSO-d6 at 2.5 ppm using a Varian 500 MHz NMR. Concentrated sulfuric acid, fumaric acid, and dimethyl fumarate were obtained from the Sigma-Aldrich Chemical Company. Authentic standards of MMS (Na salt) and DMS were also obtained from Sigma-Aldrich. For spiking identification purposes, an authentic sample of MMS was prepared by passing a methanolic solution of the commercially available sodium salt through Amberlite FPA 22 resin (H form, 10 molar equivalents), and concentrating to an oil on a flash evaporator.
All small scale reactions performed in the study were magnetically stirred and carried out using an insulated oil bath maintained at 65 deg±1° C. […]
Sampling of reactions involved removal of a minimum of 150-400 μL of reaction solution, addition to DMSO-d6 (lock solvent) as required to make up a 650 μL solution in each NMR tube. Samples were chilled in an ice/water bath, and analyzed within 5-10 minutes of their preparation. […]
Dry methanol (<0.01% water) was mixed with concentrated dry sulfuric acid and heated to 65° C. […] Equilibrium was reached within 1 hour, resulting in an essentially quantitative conversion of sulfuric acid to monomethyl sulfate. […] The second-order forward rate constant (k1) for the formation of MMS at 65° C. was determined to be 6.4×10^−5 L/mol-sec with a confidence interval of ±7% RSD.

[4] = Hydrolysis of monomethyl sulfate, water spiking, 1H NMR; assay type: physicochemical
Protocol: The rate constant of this reaction was measured by spiking water into solutions containing MMS (1.5 mole %) and monitoring the heated, sealed, vessel by ^1H NMR for 45 hours. Water was spiked into the matrix at two different levels—6 mole % and 12 mole %. […] In order to develop the larger model, the MMS equilibrium constant K (k1/k−1) was assigned a value of 999:1 in favor of the forward reaction, thus conservatively defining k−1 as 6.4×10^−8 L/mol-sec.

[5] = cited from earlier work; for rate constant for the hydrolysis of MMS, extrapolated: at 25° C.
[6] = high doses; cited from earlier work
[7] = Particle size of dimethyl fumarate by laser diffraction during and after drying; assay type: physicochemical
Protocol: The particle sizes reported here are based on a measured distribution. In one embodiment, the particle sizes are measured using a Laser Diffraction technique that correlates light scattering to particle volume on which “effective length or effective diameter” is calculated. The distribution is based on a measurement of thousands of particles. Particles samples can be in dry form or in slurry. In one embodiment, the instrument used to determine particle size/distribution is a Beckman Coulter LS230 or a Malvern Mastersizer.
The effect of temperature, pressure, and drying time on particle size was also investigated. […] Development studies examined the extent of sublimation under the drying conditions employed in the manufacturing plant. The first 3 entries in Table 5 are lab samples collected after 7, 24, and 48 hours drying time. The result from the three lab samples confirms that drying has no effects on the particle size. The particle size of lab samples were also compared to two representative plant samples which were dried for 48 hours and 72 hours. There is no change in particle size during drying.

[8] = Lab crystallization experiments with different cooling rates, mean particle size; assay type: physicochemical; conditions: isolated from the reaction mixture prior to milling
Protocol: In the current process the mixture was cooled from reaction temperature 65° C. to the end temperature 20-25° C. in about 8 hours, stirred for 1-2 hours, and filtered to isolate the product.
Table 2 highlights results from laboratory crystallization experiments with cooling rates chosen within manufacturing equipment capabilities.

[9] = Mean particle size before and after jet milling; assay type: physicochemical
Description: These particles were milled to produce particles of a suitable size for consistent handling and uniformity for drug product processing. The target specification for particle size is ≧97% of the particles <250 μm. The dimethyl fumarate drug substance was milled consistently to meet this specification using a jet mill. […] It is evident that the milling operation is capable of producing a drug substance of suitable quality.

[10] = test system: Ehrlich solid tumor cells; conditions: in mice; cited from earlier work
serum proteins = conditions: cited from earlier work

## COS(=O)(=O)OC [DMS, dimethyl sulfate]
[1]
  rate constant for the methanolysis of DMS (k3): 4.1e-05 M⁻¹ s⁻¹
[2]
  rate constant for the hydrolysis of DMS (k−2): 0.00023 M⁻¹ s⁻¹

## COS(=O)(=O)O [MMS, monomethyl sulfate]
[3]
  second-order forward rate constant (k1) for the formation of MMS: 6.4e-05 M⁻¹ s⁻¹
[4]; MMS 1.5 mole %, water 6 and 12 mole %, heated sealed vessel, 45 hours
  MMS level after water spiking: virtually unchanged
[4]; from K (k1/k−1) assigned 999:1, conservative
  hydrolysis rate constant k−1: 6.4e-08 M⁻¹ s⁻¹
[5]; T=100° C. to 150° C., sulfuric acid 1-4 M
  equilibrium constant for the hydrolysis of monomethyl sulfate: 0.027 M⁻¹
[5]; 1M HCl, T=40° C. to 100° C.
  rate constant for the hydrolysis of MMS, extrapolated: 1.7e-08 M⁻¹ s⁻¹
[5]; pH=3 to 10, T=100° C. to 190° C.
  rate constant for the hydrolysis of MMS, extrapolated: 2.2e-11 M⁻¹ s⁻¹

## O=C(O)/C(O)=C(\O)C(=O)O [dihydroxy fumaric acid]
[6]
  side effects and toxicity: high toxicity

## COC(=O)/C=C/C(=O)OC [dimethyl fumarate]
[7]; drying time 7 h (lab)
  Particle Size by Laser Diffraction, D10: 328 μm
  Particle Size by Laser Diffraction, D50: 566 μm
  Particle Size by Laser Diffraction, D90: 850 μm
  Particle Size by Laser Diffraction, D97: 987 μm
  Particle Size by Laser Diffraction, Mean: 524 μm
[7]; drying time 24 h (lab)
  Particle Size by Laser Diffraction, D10: 323 μm
  Particle Size by Laser Diffraction, D50: 562 μm
  Particle Size by Laser Diffraction, D90: 843 μm
  Particle Size by Laser Diffraction, D97: 979 μm
  Particle Size by Laser Diffraction, Mean: 521 μm
[7]; drying time 48 h (lab)
  Particle Size by Laser Diffraction, D10: 340 μm
  Particle Size by Laser Diffraction, D50: 567 μm
  Particle Size by Laser Diffraction, D90: 845 μm
  Particle Size by Laser Diffraction, D97: 980 μm
  Particle Size by Laser Diffraction, Mean: 535 μm
[7]; drying time 48 h (plant)
  Particle Size by Laser Diffraction, D10: 332 μm
  Particle Size by Laser Diffraction, D50: 561 μm
  Particle Size by Laser Diffraction, D90: 828 μm
  Particle Size by Laser Diffraction, D97: 956 μm
  Particle Size by Laser Diffraction, Mean: 536 μm
[7]; drying time 72 h (plant)
  Particle Size by Laser Diffraction, D10: 327 μm
  Particle Size by Laser Diffraction, D50: 562 μm
  Particle Size by Laser Diffraction, D90: 834 μm
  Particle Size by Laser Diffraction, D97: 963 μm
  Particle Size by Laser Diffraction, Mean: 524 μm
[8]; cooling rate 5° C./h
  Mean Particle Size: 475 μm
[8]; cooling rate 8° C./h
  Mean Particle Size: 448 μm
[8]; cooling rate 15° C./h
  Mean Particle Size: 475 μm
[9]; after jet milling
  Mean Particle Size: 20-40 μm
[9]; isolated from the dryer, before milling
  Mean Particle Size: 550-650 μm

## NC(=O)/C=C/C(N)=O [fumaramide]
[6]
  side effects and toxicity: high toxicity

## O=C(O)/C=C/C(=O)O [fumaric acid]
[10]
  growth of Ehrlich solid tumor cells: impede the growth

## N#C/C=C/C#N [fumaronitrile]
[6]
  side effects and toxicity: high toxicity

## COC(=O)/C=C/C(=O)O [methyl hydrogen fumarate]
Serum proteins
  bound by serum proteins: 30%

Reference: patent US9422226B2 (Biogen MA Inc., priority 2011, dated 2016)
